According to patent publication EP4722219A1 (Gan & Lee Pharmaceuticals Co., Ltd., priority 2023, dated 2024):

Legend:
[1] = tested on: VCaP cells; assay: Inhibition of VCaP cell proliferation (WST-8); type: cell-based; settings: 168 hours
Summary of the method: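 VCaP cells seeded at 15,000/well in DMEM + 10% FBS, treated next day with nine 5-fold dilutions from 10 µM (final) at 37°C, 5% CO2. Viability read by WST-8 absorbance at 450 nm on day 9.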

[2] = target: T1, AR protein (Homo sapiens, UniProt P10275); assay: AR protein degradation in VCaP cells (Western blot); type: cell-based; settings: 8h
T1 construct: host or cells: VCaP
T1 sequence (P10275 1-920): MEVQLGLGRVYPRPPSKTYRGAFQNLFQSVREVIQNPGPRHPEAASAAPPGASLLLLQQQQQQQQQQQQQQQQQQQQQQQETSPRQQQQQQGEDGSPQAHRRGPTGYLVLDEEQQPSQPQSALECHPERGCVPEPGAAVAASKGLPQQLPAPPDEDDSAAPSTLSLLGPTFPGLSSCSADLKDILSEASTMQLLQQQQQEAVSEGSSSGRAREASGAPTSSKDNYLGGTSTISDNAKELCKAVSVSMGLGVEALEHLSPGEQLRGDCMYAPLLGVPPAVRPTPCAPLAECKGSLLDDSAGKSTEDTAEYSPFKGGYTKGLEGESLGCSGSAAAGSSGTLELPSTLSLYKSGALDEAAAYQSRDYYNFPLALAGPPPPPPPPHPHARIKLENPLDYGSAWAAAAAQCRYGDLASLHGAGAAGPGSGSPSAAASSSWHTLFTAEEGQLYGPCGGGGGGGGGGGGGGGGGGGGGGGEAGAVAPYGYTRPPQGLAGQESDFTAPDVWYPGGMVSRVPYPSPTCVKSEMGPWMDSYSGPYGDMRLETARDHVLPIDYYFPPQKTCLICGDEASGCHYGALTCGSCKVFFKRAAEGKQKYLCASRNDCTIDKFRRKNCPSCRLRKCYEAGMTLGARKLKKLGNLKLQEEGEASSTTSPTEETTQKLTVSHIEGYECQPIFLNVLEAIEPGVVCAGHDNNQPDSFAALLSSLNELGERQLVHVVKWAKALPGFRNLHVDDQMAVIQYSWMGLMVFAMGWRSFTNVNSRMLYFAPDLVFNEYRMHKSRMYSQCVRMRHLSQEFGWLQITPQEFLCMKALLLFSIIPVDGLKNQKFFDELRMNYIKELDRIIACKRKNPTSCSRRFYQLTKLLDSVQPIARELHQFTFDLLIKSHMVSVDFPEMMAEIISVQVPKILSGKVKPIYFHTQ
Summary of the method: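 AR-positive VCaP human prostate cancer cells grown in DMEM with 10% FBS were plated in six-well plates at 3×10^5 cells/well and incubated overnight. Compounds were then added at 1 µL/well alongside a solvent control and incubated for 8h. Lysates in RIPA buffer with protease inhibitor were quantified by BCA and run by SDS-PAGE. AR was detected by Western blot, and degradation was calculated from band grayscale normalized to GAPDH.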

Compound	IC50 ([1]; Homo sapiens) [nM]	Degradation rate of AR protein in VCaP cells ([2]; 0.5 nM) [%]	Degradation rate of AR protein in VCaP cells ([2]; 5 nM) [%]	AR protein degradation rate at fixed concentration (%) at 0.0005 µM ([2]; 0.5 nM) [%]	AR protein degradation rate at fixed concentration (%) at 0.005 µM ([2]; 5 nM) [%]	IC50 [1] [nM]
C[C@H]1CC2(CCN(c3ccc(C(=O)N4CCC(CN5CCN6c7ccc(C(=O)N[C@H]8CCC(=O)NC8=O)cc7OC[C@H]6C5)CC4)cc3)CC2)CN1c1ccc(C#N)c(Cl)c1 [A-P-68]	4.5	5	33	–	–	–
COc1cc(O[C@H]2C(C)(C)[C@H](NC(=O)c3ccc(N4CCC(C)(CN5CC6(CCC7(CC6)COc6c7ccc7c6CN(C6CCC(=O)NC6=O)C7=O)C5)CC4)cc3)C2(C)C)ccc1C#N (relative stereo) [A-P-4]	0.19	50	78	–	–	–
N#Cc1ccc(O[C@H]2CC[C@H](NC(=O)c3ccc(N4CCC(N5CCC6(CC5)CCC5(CC6)COc6c5ccc5c6CN(C6CCC(=O)NC6=O)C5=O)CC4)nn3)CC2)cc1Cl (relative stereo) [A-P-7, N-((1r,4r)-4-(3-chloro-4-cyanophenoxy)cyclohexy 1)-6-(4-(7-(2,6-dioxopiperidin-3-yl)-6-oxo-7,8-dihydro-2H,6H-dipyridyl[2,3-e]isoindole-3,1'-cyclohexane-4',4'"-piperidin]-1"-yl)pyridazine-3-carboxamide]	6	79	89	–	–	–
COc1cc(O[C@H]2C(C)(C)[C@H](NC(=O)c3ccc(N4CCC(C)(CN5CCC6(CCc7cc(C(=O)N[C@H]8CCC(=O)NC8=O)c(F)cc7O6)CC5)CC4)cn3)C2(C)C)ccc1C#N [A-P-43, 1'-((1-(6-(((1r,3r)-3-(4-cyano-3-methoxyphenoxy)-2,2,4,4-tetramethylcyclobutyl)carbamoyl)pyridin-3-yl)-4-methylpiperidin-4-yl)methyl)-N-((S)-2,6-dioxopiperidin-3-yl)-7-fluorospiro[chroman-2,4'-piperidin]-6-carboxamide]	1550	33	32	–	–	–
COc1cc(O[C@H]2C(C)(C)[C@H](NC(=O)c3ccc(N4CCC(C)(CN5CCC6(CCc7cc(F)c(C(=O)N[C@H]8CCC(=O)NC8=O)cc7O6)CC5)CC4)cc3)C2(C)C)ccc1C#N [A-P-38, 1-(1-(4-((1R,3R)-3-((4-cyano-3-methoxyphenoxy)-2,2,4,4-tetramethylcyclobutyl)carbamoyl)phenyl)-4-methylpiperidin-4-methyl)-N-((S)-2,6-dioxopiperidin-3-yl)-6-fluorospiro[chroman-2,4'-piperidin]-7-carboxamide]	> 10000	-21	-5	–	–	–
COc1cc(O[C@H]2C(C)(C)[C@H](NC(=O)c3ccc(N4CCC(N5CC6(CCC7(CC6)COc6c7ccc7c6CN(C6CCC(=O)NC6=O)C7=O)C5)CC4)cc3)C2(C)C)ccc1C#N (stereo partly drawn) [A-P-2]	0.06	–	–	50	83	–
COc1cc(O[C@H]2C(C)(C)[C@H](NC(=O)c3ccc(N4CCC(CN5CCC6(CCc7cc(C(=O)N[C@H]8CCC(=O)NC8=O)c(F)cc7O6)CC5)CC4)nc3)C2(C)C)ccc1C#N [A-P-33, 1'-((1-(5-(((1R,3R)-3-(4-cyano-3-methoxyphenoxy)-2,2,4,4-tetramethylcyclobutyl)carbamoyl)pyridin-2-yl)piperidin-4-yl)methyl)-N-((S)-2,6-dioxopiperidin-3-yl)-7-fluorospiro[chroman-2,4'-piperidin]-6-carboxamide]	450	56	84	–	–	–
COc1cc(O[C@H]2CC[C@H](NC(=O)c3ccc(N4CCC(CN5CCC6(CC5)COc5c6ccc6c5n(C)c(=O)n6C5CCC(=O)NC5=O)CC4)nn3)CC2)ccc1C#N (stereo partly drawn) [A-P-22]	0.026	–	–	84	69	–
COc1cc(O[C@H]2C(C)(C)[C@H](NC(=O)c3ccc(N4CCC(C)(CN5CCC6(CCc7cc(C(=O)N[C@H]8CCC(=O)NC8=O)c(F)cc7O6)CC5)CC4)cc3)C2(C)C)ccc1C#N [A-P-31, 1'-((1-((4-((1r,3r)-3-(4-cyano-3-methoxyphenoxy)-2,2,4,4-tetramethylcyclobutyl)carbamoyl)phenyl)-4-methylpiperidin-4-yl)methyl)-N-((S)-2,6-dioxopiperidin-3-yl)-7-fluorospiro[2,4'-piperidin]-6-carboxamide]	3170	–	–	-13	41	–
CC1(C)[C@H](NC(=O)c2ccc(N3CCC(CN4CCC5(CCc6cc(C(=O)N[C@H]7CCC(=O)NC7=O)c(F)cc6O5)CC4)CC3)nc2)C(C)(C)[C@H]1Oc1ccc(C#N)c(Cl)c1 [A-P-50, 1'-((1-(5-(((1R,3R)-3-(3-chloro-4-cyanophenoxy)-2,2,4,4-tetramethylcyclobutyl)carbamoyl)pyridin-2-yl)piperidin-4-yl)methyl)-N-((S)-2,6-dioxopiperidin-3-yl)-7-fluorospiro[chroman-2,4'-piperidin]-6-carboxamide]	51	84	87	–	–	–
COc1cc(O[C@H]2C(C)(C)[C@H](NC(=O)c3ccc(N4CCC(N5CCC6(CC5)COc5c6ccc6c5n(C)c(=O)n6C5CCC(=O)NC5=O)CC4)cc3)C2(C)C)ccc1C#N (stereo partly drawn) [A-P-29]	19	–	–	70	68	–
COc1cc(O[C@H]2C(C)(C)[C@H](NC(=O)c3ccc(N4CCC(CN5CCC6(CC5)COc5c6ccc(C(=O)N[C@H]6CCC(=O)NC6=O)c5F)(OC)CC4)cc3)C2(C)C)ccc1C#N [A-P-86, 1'-((1-(4-(((1r,3r)-3-(4-cyano-3-methoxyphenoxy)-2,2,4,4-tetramethylcyclobutyl)carbamoyl)phenyl)-4-methoxypiperidin-4-yl)methyl)-N-((S)-2,6-dioxopiperidin-3-yl)-7-fluoro-2H-spiro[benzofuran-3,4'-piperidin]-6-carboxamide]	1790	-30	1	–	–	–
(S)-3-((1-(4-(((S)-2-(3-chloro-4-cyanophenyl)-3-methyl-2,8-diazaspiro[4.5]decan-8-yl)phenyl)piperidin-4-yl)methyl)-N-(((S)-2,6-dioxopiperidin-3-yl)-1,2,3,4,4a,5-hexahydrobenzo[b]pyrazi no[1,2-d][1,4]oxazine-8-carboxamide [A-P-57]	–	-31	-21	–	–	3020
COc1cc(O[C@H]2C(C)(C)[C@H](NC(=O)c3ccc(N4CCC(C)(CN5CCC6(CC5)COc5c6ccc(C(=O)N[C@H]6CCC(=O)NC6=O)c5F)CC4)cc3)C2(C)C)ccc1C#N [A-P-85, 1'-((1-(4-(((1r,3r)-3-(4-cyano-3-methoxyphenoxy)-2,2,4,4-tetramethylcyclobutyl)carbamoyl)phenyl)-4-methylpiperidin-4-yl)methyl)-N-((S)-2,6-dioxopiperidin-3-yl)-7-fluoro-2H-spiro[benzofuran-3,4'-piperidin]-6-carboxamide]	540	18	34	–	–	–
COc1cc(O[C@H]2C(C)(C)[C@H](NC(=O)c3ccc(N4CCC(CN5CCC6(CC5)COc5c6ccc(C(=O)N[C@H]6CCC(=O)NC6=O)c5F)CC4)cc3)C2(C)C)ccc1C#N [A-P-83]	2580	36	66	–	–	–
